From patent publication US10308607B2, “Fucosidase inhibitors” (HORIZON ORPHAN LLC, priority 2015, dated 2019)
Like-named read-outs stand apart in the source and are kept apart here.

Assays:
HepG2 cells = experiment: Metabolic labeling with tagged-fucose, flow cytometry; type: cell-based, human
Method: Perturbations in glycoprotein metabolism were assayed by growing HepG2 cells without fucosidase inhibitors, or with compound II, III, or IV (see Example 2) for 24 hours, and then adding (3S,4R,5R,6S)-6-ethynyltetrahydro-2H-pyran-2,3,4,5-tetrayl tetra acetate, a per-acetylated analog of fucose containing an alkyne moiety in place of the 5′-methyl group (Click-iT™ Fucose Alkyne, Molecular Probes, Eugene, Oreg.) for an additional 48 hours. Cells were fixed, permeabilized, washed, and stained with Alexa Fluor 488 Azide to orthogonally label glycoproteins incorporating the fucose analog. Cells were then analyzed for fluorescence using a Guava 6HT-2L flow cytometer (ThermoFisher).

HepG2 = experiment: Multiplexed cytotoxicity assay; type: cell-based, human; details: HepG2, liver carcinoma, 72 hour
Method: (§1) To assess the cytotoxicity of compound II (see Example 2) in cancer and normal cells, the cells were grown in RPMI1640, 10% FBS, 2 mM L-alanyl-L-Glutamine, 1 mM Na Pyruvate or a special medium in a humidified atmosphere of 5% CO2 at 37° C. Cells were seeded into 384-well plates and incubated in a humidified atmosphere of 5% CO2 at 37° C. Compound II was added 24 hours post cell seeding. At the same time, a time zero untreated cell plate was generated.
(§2) After a 72 hour incubation period, cells were fixed and stained with fluorescently labeled antibodies and nuclear dye to allow visualization of nuclei, apoptotic cells and mitotic cells. Apoptotic cells were detected using an anti-active caspase-3 antibody. Mitotic cells were detected using an anti phospho-histone-3 antibody.
(§3) Compound II was serially diluted 3.16-fold and assayed over 9 concentrations. Automated fluorescence microscopy was carried out using a GE Healthcare IN Cell Analyzer 1000, and images were collected with a 4× objective.
(§4) Twelve bit tiff images were acquired using the InCell Analyzer 1000 3.2 and analyzed with Developer Toolbox 1.6 software. EC50 and IC50 values were calculated using nonlinear regression to fit data to a sigmoidal 4 point, 4 parameter One-Site dose response model, where: y (fit)=A+[(B−A)/(1+((C/x)^D))]. […]

[1] = Multiplexed cytotoxicity assay; type: cell-based, human; details: human, HepG2 cells (liver carcinoma), read-out: Cytotoxic EC50
Method: as §1, §2, §3, §4

HRPTEpiC = experiment: Multiplexed cytotoxicity assay; type: cell-based; details: normal renal, 72 hour
Method: as §1, §2, §3
(§5) Twelve bit tiff images were acquired using the InCell Analyzer 1000 3.2 and analyzed with Developer Toolbox 1.6 software. EC50 and IC50 values were calculated using nonlinear regression to fit data to a sigmoidal 4 point, 4 parameter One-Site dose response model, where: y (fit)=A+[(B−A)/(1+((C/x)^D))]. Curve-fitting, EC50/IC50 calculations and report generation are performed using a custom data reduction engine MathIQ based software (AIM).
(§6) The multiplexed cytotoxicity assay uses a cell image based analysis technique where cells are fixed and stained with fluorescently labeled antibodies and nuclear dye to visualize nuclei, and apoptotic and mitotic cells. Apoptotic cells are detected using an anti-active caspase-3 antibody. Mitotic cells are detected using an anti phospho-histone-3 antibody. Cell proliferation is measured by the signal intensity of the incorporated nuclear dye. The cell proliferation assay output is referred to as the relative cell count. To determine the cell proliferation end point, the cell proliferation data output is transformed to percent of control (POC) using the following formula: POC=relative cell count(compound wells)/relative cell count(vehicle wells)×100.
(§7) Relative cell count IC50 is the test compound concentration at 50% of maximal possible response. A relative cell count EC50 is the test compound concentration at the curve inflection point or half the effective response (parameter C of the fitted curve solution). GI50 is the concentration needed to reduce the observed growth by half. This is the concentration that inhibits the growth midway between untreated cells and the number of cells seeded in the well (Time zero value).
(§8) The activated caspase-3 marker labels cells from early to late stage apoptosis. The output is shown as a fold increase of apoptotic cells over vehicle background normalized to the relative cell count in each well. Concentrations of test compound that cause a 5-fold induction in the caspase-3 signal indicates significant apoptosis induction. Wells with concentrations higher than the relative cell count IC95 are eliminated from the caspase3 induction analysis.
(§9) The phospho-histone-3 marker labels mitotic cells. The output is shown as a fold induction of mitotic cells over vehicle background normalized to the relative cell count in each well. When the fold induction of mitotic cell signal over background is ˜1, there is “no effect” on the cell cycle. Two or more fold increase in phospho-histone-3 signal over vehicle background indicates significant test compound induction of mitotic block.
(§10) Two or more fold decrease in the phospho-histone-3 signal may indicate G1/S block only when cytotoxicity levels are below the measured relative cell count IC95. […]

A549 = experiment: Multiplexed cytotoxicity assay; type: cell-based; details: A549, lung carcinoma, 72 hour
Method: as §1, §2, §3, §5, §6, §7, §8, §9, §10

SKOV3 = experiment: Multiplexed cytotoxicity assay; type: cell-based; details: SKOV3, ovary carcinoma, 72 hour
Method: as §1, §2, §3, §5, §6, §7, §8, §9, §10

HPH = experiment: Multiplexed cytotoxicity assay; type: cell-based; details: normal primary hepatocyte, 72 hour
Method: as §1, §2, §3, §5, §6, §7, §8, §9, §10

NHDF = experiment: Multiplexed cytotoxicity assay; type: cell-based; details: normal skin, 72 hour
Method: as §1, §2, §3, §5, §6, §7, §8, §9, §10

HUVEC = experiment: Multiplexed cytotoxicity assay; type: cell-based; details: normal endothelium, 72 hour
Method: as §1, §2, §3, §5, §6, §7, §8, §9, §10

U-87 MG = experiment: Multiplexed cytotoxicity assay; type: cell-based; details: brain blastoma, 72 hour
Method: as §1, §2, §3, §5, §6, §7, §8, §9, §10

BxPC-3 = experiment: Multiplexed cytotoxicity assay; type: cell-based; details: BxPC-3, pancreas carcinoma, 72 hour
Method: as §1, §2, §3, §5, §6, §7, §8, §9, §10

HUMSC = experiment: Multiplexed cytotoxicity assay; type: cell-based; details: normal mesenchymal stem, 72 hour
Method: as §1, §2, §3, §5, §6, §7, §8, §9, §10

K562 = experiment: Multiplexed cytotoxicity assay; type: cell-based; details: K562, blood leukemia, 72 hour
Method: as §1, §2, §3, §5, §6, §7, §8, §9, §10

HeLa = experiment: Multiplexed cytotoxicity assay; type: cell-based; details: cervix carcinoma, 72 hour
Method: as §1, §2, §3, §5, §6, §7, §8, §9, §10

HT-1080 = experiment: Multiplexed cytotoxicity assay; type: cell-based; details: HT-1080, connective sarcoma, 72 hour
Method: as §1, §2, §3, §5, §6, §7, §8, §9, §10

[2] = Multiplexed cytotoxicity assay; type: cell-based; details: human, read-out: Cytotoxic EC50
Method: as §1, §2, §3, §5, §6, §7, §8, §9, §10

## C[C@@H]1N[C@H](CNC(=O)c2cccc3c2C(=O)c2ccccc2-3)[C@@H](O)[C@H](O)[C@@H]1O [Compound II]
HepG2 cells; HepG2, 24 hours compound then 48 hours fucose alkyne, Alexa Fluor 488 Azide
  Mean Green Fluorescence (GRN-HLog): 8433
HepG2 cells; mean green fluorescence, HepG2
  Fold over vehicle: 2.98
HepG2
  G1/S arrest: 36 µM
[1]
  EC50 at 72 h: 44 µM
HRPTEpiC
  G1/S arrest: 10 µM
A549
  G1/S arrest: 21 µM
SKOV3
  G1/S arrest: 98 µM
HPH
  Primary effect: no effect
NHDF
  G1/S arrest: 14 µM
HUVEC
  G1/S arrest: 14 µM
U-87 MG
  G1/S arrest: 26 µM
BxPC-3
  G1/S arrest: 55 µM
HUMSC
  G1/S arrest: 10 µM
K562
  G1/S arrest: 93 µM
HeLa
  G1/S arrest: 70 µM
HT-1080
  G1/S arrest: 78 µM
[2]; A549 cells (lung carcinoma)
  EC50 at 72 h: 29 µM
[2]; BxPC-3 cells (pancreas carcinoma), BxPC-3, pancreas carcinoma
  EC50 at 72 h: 43 µM
[2]; HPH (normal primary hepatocytes), normal primary hepatocyte
  EC50 at 72 h: > 100 µM
[2]; HRPTEpiC cells (normal renal)
  EC50 at 72 h: 72 µM
[2]; HT-29 cells (colon carcinoma), HT-29, colon carcinoma
  EC50 at 72 h: 31 µM
[2]; HT-1080 cells (connective sarcoma), HT-1080, connective sarcoma
  EC50 at 72 h: 21 µM
[2]; HUMSC cells (normal mesenchymal stem cells)
  EC50 at 72 h: 9 µM
[2]; HUVEC cells (normal endothelium)
  EC50 at 72 h: 14 µM
[2]; HeLa cells (cervix carcinoma)
  EC50 at 72 h: 47 µM
[2]; K562 cells (blood leukemia)
  EC50 at 72 h: 98 µM
[2]; LNCaP cells (prostate carcinoma)
  EC50 at 72 h: 54 µM
[2]; MDA-MB-231 cells (breast carcinoma), MDA-MB-231, breast carcinoma
  EC50 at 72 h: 44 µM
[2]; NHDF cells (normal skin)
  EC50 at 72 h: 22 µM
[2]; SKOV3 cells (ovary carcinoma)
  EC50 at 72 h: > 100 µM
[2]; SNU-423 cells (liver carcinoma), SNU-423, liver carcinoma
  EC50 at 72 h: > 100 µM
[2]; U-87 MG cells (brain blastoma)
  EC50 at 72 h: 34 µM
